This note sets out measurements from patent US8076338B2, “Kinase modulators and methods of use” (Exelixis, Inc., priority 2004, dated 2011).

A value given as a limit tells only on which side of the number the result lay.

For one experiment, the target named is AktK (Homo sapiens, UniProt P31749). Put plainly: Luciferase-coupled chemiluminescence kinase assay (ATP consumption). The experiment is classed as biochemical. The following applies: Table 1; class symbols per key; read-out: AKT-1 IC50. As for the experimental part: (§1) One measure of inhibition is Ki. […] The Ki for a compound is determined from the IC50 based on three assumptions. First, only one compound molecule binds to the enzyme and there is no cooperativity. […] Third, the enzymatic rate of the enzyme-inhibitor complex is zero. The rate data (i.e. compound concentration) are fitted to the equation: […]
Sequence of AktK (P31749 whole entry): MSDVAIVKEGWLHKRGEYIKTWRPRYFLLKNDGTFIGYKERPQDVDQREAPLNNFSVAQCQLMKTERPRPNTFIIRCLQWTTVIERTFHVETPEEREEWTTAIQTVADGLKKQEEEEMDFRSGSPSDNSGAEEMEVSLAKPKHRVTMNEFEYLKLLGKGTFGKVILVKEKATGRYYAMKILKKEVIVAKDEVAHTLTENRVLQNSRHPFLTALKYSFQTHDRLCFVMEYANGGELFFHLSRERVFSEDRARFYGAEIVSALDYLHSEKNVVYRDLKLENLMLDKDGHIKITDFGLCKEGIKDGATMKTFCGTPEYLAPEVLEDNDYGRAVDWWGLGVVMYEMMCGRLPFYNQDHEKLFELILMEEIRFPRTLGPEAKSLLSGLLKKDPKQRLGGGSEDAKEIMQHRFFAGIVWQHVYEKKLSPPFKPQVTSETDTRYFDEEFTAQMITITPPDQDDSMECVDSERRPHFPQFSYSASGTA
(§2) Luciferase-Coupled Chemiluminescence Assay Protocol
(§3) Kinase activity is measured as the percent of ATP consumed following the kinase reaction using luciferase-luciferin-coupled chemiluminescence. Reactions were conducted in 384-well white, medium binding microtiter plates (Greiner). Kinase reactions were initiated by combining test compounds, ATP and kinase in a 20 uL volume. The reaction mixture was incubated at ambient temperature for 3 hrs. For p70S6K and/or AktK, 2.5-5 nM of the enzyme was pre-incubated with compound in 20 mM Tris pH 7.5, 10 mM MgCl2, 0.03% TX-100, and 1 mM DTT for 30 minutes at room temperature. Following the kinase reaction, a 20 μL aliquot of luciferase-luciferin mix was added and the chemiluminescence signal measured using a Victor^2 plate reader (Perkin Elmer). The luciferase-luciferin mix contained 50 mM HEPES, pH 7.8, 67 mM oxalic acid (pH 7.8), 5 (or 50) mM DTT, 0.4% Triton X-100, 0.25 mg/mL coenzyme A, 63 μM AMP, 28 μg/1 mL luciferin and 40,000 units/mL luciferase. Total ATP consumption was limited to 25-60% and the IC50 values correlate well with those determined by radiometric assays.

Another experiment deals with p70S6K (Homo sapiens, UniProt P23443). The experiment is described as above. The experiment is classed as biochemical. The settings on record: Table 1; class symbols per key. As for the experimental part:
as §1, §2, §3

Sequence of p70S6K (P23443 whole entry): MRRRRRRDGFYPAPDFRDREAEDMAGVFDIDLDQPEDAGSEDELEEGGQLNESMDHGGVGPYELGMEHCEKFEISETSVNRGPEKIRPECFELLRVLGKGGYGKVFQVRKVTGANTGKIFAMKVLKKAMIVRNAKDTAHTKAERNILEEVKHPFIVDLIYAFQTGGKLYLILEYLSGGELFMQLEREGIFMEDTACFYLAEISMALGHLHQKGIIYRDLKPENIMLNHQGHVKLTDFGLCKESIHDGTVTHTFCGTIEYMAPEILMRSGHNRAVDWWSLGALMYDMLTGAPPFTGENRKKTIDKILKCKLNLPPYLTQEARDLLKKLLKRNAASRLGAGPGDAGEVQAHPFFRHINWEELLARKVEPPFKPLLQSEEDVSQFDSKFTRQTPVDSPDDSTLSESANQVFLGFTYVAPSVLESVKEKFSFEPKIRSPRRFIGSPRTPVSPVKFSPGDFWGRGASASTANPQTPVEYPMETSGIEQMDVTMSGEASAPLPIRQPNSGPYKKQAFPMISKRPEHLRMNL

The IC50 is the concentration that gives 50% inhibition. On to `COc1ccccc1N1CCN(c2ncnc3[nH]nc(Br)c23)CC1` [Entry 66, 3-bromo-4-{4-[2-(methyloxy)phenyl]piperazin-1-yl}-1H-pyrazolo[3,4-d]pyrimidine], for which the IC50 at AktK was at least 10000 nM; against p70S6K, below 100 nM.
Consider `Cc1ccc(N2CCN(c3ncnc4[nH]nc(Br)c34)CC2)cc1CCCN1CCCC1` [Entry 67, 3-bromo-4-{4-[4-methyl-3-(3-pyrrolidin-1-ylpropyl)phenyl]piperazin-1-yl}-1H-pyrazolo[3,4-d]pyrimidine], for which the values for the IC50 on AktK and at p70S6K were 1000 to 10000 nM and 100 to 1000 nM, respectively.
Taken in the same sequence, the figures for `Cc1c(OCCCN2CCCC2)cc(Cl)cc1N1CCN(c2ncnc3[nH]nc(C(F)(F)F)c23)CC1` [Entry 68, 4-(4-{5-chloro-2-methyl-3-[(3-pyrrolidin-1-ylpropyl)oxy]phenyl}piperazin-1-yl)-3-(trifluoromethyl)-1H-pyrazolo[3,4-d]pyrimidine] were 100 to 1000 nM and below 100 nM.
The matching figures for `Cc1c(OCCCN2CCCCC2)cc(Cl)cc1N1CCN(c2ncnc3[nH]nc(C(F)(F)F)c23)CC1` [Entry 69, 4-(4-{5-chloro-2-methyl-3-[(3-piperidin-1-ylpropyl)oxy]phenyl}piperazin-1-yl)-3-(trifluoromethyl)-1H-pyrazolo[3,4-d]pyrimidine]: 100 to 1000 nM and below 100 nM.
Taken in the same sequence, the figures for `Cc1c(OCCCN2CCN(C)CC2)cc(Cl)cc1N1CCN(c2ncnc3[nH]nc(C(F)(F)F)c23)CC1` [Entry 70, 4-[4-(5-chloro-2-methyl-3-{[3-(4-methylpiperazin-1-yl)propyl]oxy}phenyl)piperazin-1-yl]-3-(trifluoromethyl)-1H-pyrazolo[3,4-d]pyrimidine] were 100 to 1000 nM and below 100 nM.
For `CCN1CCN(CCCOc2cc(Cl)cc(N3CCN(c4ncnc5[nH]nc(C(F)(F)F)c45)CC3)c2C)CC1` [Entry 71, 4-[4-(5-chloro-3-{[3-(4-ethylpiperazin-1-yl)propyl]oxy}-2-methylphenyl)piperazin-1-yl]-3-(trifluoromethyl)-1H-pyrazolo[3,4-d]pyrimidine], the IC50 at AktK was 100 to 1000 nM; against p70S6K, below 100 nM.
On to `Cc1c(OCCN2CCN(C)CC2)cc(Cl)cc1N1CCN(c2ncnc3[nH]nc(Br)c23)CC1` [Entry 72, 3-bromo-4-[4-(5-chloro-2-methyl-3-{[2-(4-methylpiperazin-1-yl)ethyl]oxy}phenyl)piperazin-1-yl]-1H-pyrazolo[3,4-d]pyrimidine], for which the IC50 was 100 to 1000 nM at AktK and below 100 nM at p70S6K.
Taken in the same sequence, the figures for `Cc1c(OCCN2CCN(C)CC2)cc(Cl)cc1N1CCN(c2ncnc3[nH]nc(C(F)(F)F)c23)CC1` [Entry 73, 4-[4-(5-chloro-2-methyl-3-{[2-(4-methylpiperazin-1-yl)ethyl]oxy}phenyl)piperazin-1-yl]-3-(trifluoromethyl)-1H-pyrazolo[3,4-d]pyrimidine] were 100 to 1000 nM and below 100 nM.
`CCN1CCN(CCOc2cc(Cl)cc(N3CCN(c4ncnc5[nH]nc(Br)c45)CC3)c2C)CC1` [Entry 74, 3-bromo-4-[4-(5-chloro-3-{[2-(4-ethylpiperazin-1-yl)ethyl]oxy}-2-methylphenyl)piperazin-1-yl]-1H-pyrazolo[3,4-d]pyrimidine]: the IC50 at AktK and against p70S6K was below 100 nM in each case.
As for `Clc1ccc(N2CCN(c3ncnc4[nH]nc(Br)c34)CC2)cc1Cl` [Entry 75, 3-bromo-4-[4-(3,4-dichlorophenyl)piperazin-1-yl]-1H-pyrazolo[3,4-d]pyrimidine], the results for the IC50 on AktK and on p70S6K were at least 10000 nM and 100 to 1000 nM, respectively.
Taken in the same sequence, the figures for `Fc1ccc(N2CCN(c3ncnc4[nH]nc(Br)c34)CC2)cc1F` [Entry 76, 3-bromo-4-[4-(3,4-difluorophenyl)piperazin-1-yl]-1H-pyrazolo[3,4-d]pyrimidine] were at least 10000 nM and 100 to 1000 nM.
The matching figures for `Clc1ccc(N2CCN(c3ncnc4[nH]nc(Br)c34)CC2)c(Cl)c1` [Entry 77, 3-bromo-4-[4-(2,4-dichlorophenyl)piperazin-1-yl]-1H-pyrazolo[3,4-d]pyrimidine]: at least 10000 nM and 100 to 1000 nM.
Taken in the same sequence, the figures for `CCc1n[nH]c2ncnc(N3CCN(c4cc(F)cc(NCCN5CCCC5)c4C)CC3)c12` [Entry 78, 3-[4-(3-ethyl-1H-pyrazolo[3,4-d]pyrimidin-4-yl)piperazin-1-yl]-5-fluoro-2-methyl-N-(2-pyrrolidin-1-ylethyl)aniline] were 1000 to 10000 nM and below 100 nM.
Regarding `Cc1c(NCCN2CCCC2)cc(F)cc1N1CCN(c2ncnc3[nH]nc(C(F)(F)F)c23)CC1` [Entry 79, 5-fluoro-2-methyl-N-(2-pyrrolidin-1-ylethyl)-3-{4-[3-(trifluoromethyl)-1H-pyrazolo[3,4-d]pyrimidin-4-yl]piperazin-1-yl}aniline], the values for the IC50 on AktK and on p70S6K were 100 to 1000 nM and below 100 nM, respectively.
Taken in the same sequence, the figures for `COc1cc(OC)cc(N2CCN(c3ncnc4[nH]nc(Br)c34)CC2)c1` [Entry 80, 4-{4-[3,5-bis(methyloxy)phenyl]piperazin-1-yl}-3-bromo-1H-pyrazolo[3,4-d]pyrimidine] were 1000 to 10000 nM and below 100 nM.
Taken in the same sequence, the figures for `CCN1CCN(CCOc2cc(Cl)cc(N3CCN(c4ncnc5[nH]nc(C(F)(F)F)c45)CC3)c2C)CC1` [Entry 81, 4-[4-(5-chloro-3-{[2-(4-ethylpiperazin-1-yl)ethyl]oxy}-2-methylphenyl)piperazin-1-yl]-3-(trifluoromethyl)-1H-pyrazolo[3,4-d]pyrimidine] were 100 to 1000 nM and below 100 nM.
The matching figures for `CCc1n[nH]c2ncnc(N3CCN(c4cc(Cl)cc(N(C)CCN(C)C)c4C)CC3)c12` [Entry 82, N-{5-chloro-3-[4-(3-ethyl-1H-pyrazolo[3,4-d]pyrimidin-4-yl)piperazin-1-yl]-2-methylphenyl}-N,N′,N′-trimethylethane-1,2-diamine]: 1000 to 10000 nM and below 100 nM.
Take `CCN(CC)CCCOc1cc(Cl)cc(N2CCN(c3ncnc4[nH]nc(Br)c34)CC2)c1C` [Entry 83, 3-({3-[4-(3-bromo-1H-pyrazolo[3,4-d]pyrimidin-4-yl)piperazin-1-yl]-5-chloro-2-methylphenyl}oxy)-N,N-diethylpropan-1-amine]: the IC50 at AktK and on p70S6K was below 100 nM throughout.
Regarding `Cc1c(OCCCN2CCCC2)cc(Cl)cc1N1CCN(c2ncnc3[nH]nc(Br)c23)CC1` [Entry 84, 3-bromo-4-(4-{5-chloro-2-methyl-3-[(3-pyrrolidin-1-ylpropyl)oxy]phenyl}piperazin-1-yl)-1H-pyrazolo[3,4-d]pyrimidine], the IC50 at AktK and against p70S6K was below 100 nM each time.
As to `Cc1c(OCCCN2CCN(C)CC2)cc(Cl)cc1N1CCN(c2ncnc3[nH]nc(Br)c23)CC1` [Entry 85, 3-bromo-4-[4-(5-chloro-2-methyl-3-{[3-(4-methylpiperazin-1-yl)propyl]oxy}phenyl)piperazin-1-yl]-1H-pyrazolo[3,4-d]pyrimidine], the IC50 at AktK and against p70S6K was below 100 nM in each case.
`CCN1CCN(CCCOc2cc(Cl)cc(N3CCN(c4ncnc5[nH]nc(Br)c45)CC3)c2C)CC1` [Entry 86, 3-bromo-4-[4-(5-chloro-3-{[3-(4-ethylpiperazin-1-yl)propyl]oxy}-2-methylphenyl)piperazin-1-yl]-1H-pyrazolo[3,4-d]pyrimidine]: the IC50 at AktK and on p70S6K was below 100 nM in each case.
As for `CCN(CC)CCCc1cc(Cl)cc(N2CCN(c3ncnc4[nH]nc(C(F)(F)F)c34)CC2)c1C` [Entry 87, 3-(5-chloro-2-methyl-3-{4-[3-(trifluoromethyl)-1H-pyrazolo[3,4-d]pyrimidin-4-yl]piperazin-1-yl}phenyl)-N,N-diethylpropan-1-amine], the IC50 at AktK was 100 to 1000 nM; against p70S6K it was below 100 nM.
The matching figures for `Cc1c(OCC2CCN(C)CC2)cc(Cl)cc1N1CCN(c2ncnc3[nH]nc(Br)c23)CC1` [Entry 88, 3-bromo-4-[4-(5-chloro-2-methyl-3-{[(1-methyl-piperidin-4-yl)methyl]oxy}phenyl)piperazin-1-yl]-1H-pyrazolo[3,4-d]pyrimidine]: below 100 nM and below 100 nM.
Taken in the same sequence, the figures for `Cc1c(OCCC2CCN(C)CC2)cc(Cl)cc1N1CCN(c2ncnc3[nH]nc(Br)c23)CC1` [Entry 89, 3-bromo-4-[4-(5-chloro-2-methyl-3-{[2-(1-methyl-piperidin-4-yl)ethyl]oxy}phenyl)piperazin-1-yl]-1H-pyrazolo[3,4-d]pyrimidine] were below 100 nM and below 100 nM.
Taken in the same sequence, the figures for `Cc1c(OCC2CCN(C)CC2)cc(Cl)cc1N1CCN(c2ncnc3[nH]nc(C(F)(F)F)c23)CC1` [Entry 90, 4-[4-(5-chloro-2-methyl-3-{[(1-methylpiperidin-4-yl)methyl]oxy}phenyl)piperazin-1-yl]-3-(trifluoro-methyl)-1H-pyrazolo[3,4-d]pyrimidine] were 100 to 1000 nM and below 100 nM.
